Source: patent US20200261534A1, “NEW TREATMENTS OF MULTIPLE MYELOMA” (priority 2017, published 2020)
Where two headings read alike, the source gives them in different places. Starred links: 1 amine or outer side, 2 acyl side, 3 side chain; linkers in the order of their positions; H or OH if unused. Positions of bridges follow the written chain, without caps; N, C: chain ends. Non-standard residues stand in square brackets, D forms with d. Residues, ends and D or L forms follow the SMILES beside them. ξ: configuration not given here. Biphenyl(4,4'-CH2)2 = c1cc(-c2ccc(C[*:2])cc2)ccc1C[*:1]; ξαMeNle(6-ylidene) = CC(CCCC=[*:3])(N[*:1])C(=O)[*:2]; X1 = CC(CCCCCCC=[*:3])(N[*:1])C(=O)[*:2]; Octanediyl(1,8) = C(CCCC[*:2])CCC[*:1]; ξC = NC(CS)C(=O)O

What was measured:
[1] = tested on: MM1R, lymphoblast (myeloma), resistant to Dexamethasone
Experimental: MM1R, lymphoblast, (myeloma), ATCC® CRL-2975™, resistant to Dexamethasone
(§1) All cell lines were cultured in incubator at 37° C. in RPMI-1640 (Sigma R8758) medium with 10% of fetal bovine serum inactivated (FBS) and 2 mM glutamine (Sigma G7513). During the amplification step cells were centrifuged and transferred into the culturing medium. Cells were counted in a Neubauer chamber after labelling with Tripan-Blue.
(§2) Cells were seeded at a density of 10000 cells/well in 100 μl of medium in 96 well plates. After 24 h, the compounds to be tested were added to calculate the dose/response curve at the starting concentration of 100 μM with serial dilutions (1:1). Controls are the untreated cells. Each experiment was performed in triplicate.
(§3) Cells were incubated with the peptidomimetic compound (S09) at the indicated concentrations during 24-72 h in incubator under CO2 atmosphere at 37° C. Then, cell viability was measured by means of MTT (3-(4,5-dimethylthiazol-2-yl)-2,5-diphenyltetrazolium bromide) assay. Stock solution of MTT (475989 Calbiochem) was 5 mg/ml in PBS. 1×.10 μl/well of MTT solution were added and the plate was incubated for 3-4 hr. The medium was discarded and 100 μl of extracting buffer (PBS 1×, 15% SDS, 50% […] N,N-Dimethylformamide, pH 4.7) were added to each well. Plates were incubated for 16 h at room temperature under orbital shaking. Absorbance at 570 nm was finally measured. As negative control (experiment noise) 3 wells were treated with 20 μl/well of a solution of SDS 10% in H2O.
(§4) Data analysis was performed calculating the percentage of cell viability normalized vs. the values of negative control, which was considered equal to 100%. The dose/response curve was fitted through the sigmoidal equation dose-response (variable slope) and the IC50 values were calculated as follow:
Y=Bottom+(Top−Bottom)/(1+10^{[(LogIC50−X)*HillSlope]},
All cell lines were cultured in incubator at 37° C. in RPMI-1640 (Sigma R8758) medium with 10% of fetal bovine serum inactivated (FBS) and 2 mM glutamine (Sigma G7513).
as §2, with “of 10,000” for “of 10000”, “of 40” for “of 100”
as §3, with “compounds” for “compound (S09)”

[2] = tested on: BJ, fibroblast (normal skin); assay: MTT viability assay, BJ; type: cell-based; conditions: incubation 24-72 h, Table 3
Experimental: BJ, fibroblast (normal skin), ATCC® CRL-2522™
Cell lines A549, MCF-7 and RAMOS were cultured in incubator under CO2 (6%) at 37° C. in DMEM high glucose (Dulbecco's Modified Eagle Solution, Gibco-BRL 31966-21) medium with 10% fetal bovine serum inactivated (FBS) (Gibco-BRL 10106-169). Cell lines HL-60 and MM.1S were cultured in incubator at 37° C. in RPMI-1640 (Sigma R8758) medium with 10% of fetal bovine serum inactivated (FBS) and 2 mM glutamine (Sigma G7513). Cell lines BJ were cultured in incubator under CO2 (6%) at 37° C. in Eagle's Minimum Essential Medium (Sigma, M-2279) with 10% fetal bovine serum inactivated (FBS) (Gibco-BRL 10106-169).
During the amplification step and the assays adherent cells were rinsed with DPBS (Dulbecco's Phosphate Buffered Saline, Sigma D1283) three times and afterward treated for 5 minutes with trypsin ([…]) (Gibco-BRL, 15400054) in solution of DPBS at 37° C., and, once detached, transferred in the culturing medium. […] Cells were counted in a Neubauer chamber after labelling with Tripan-Blue. […]
(§5) Cells were incubated with the compounds at the indicated concentrations during 24-72 h in incubator under CO2 atmosphere at 37° C. Then, cell viability was measured by means of MTT (3-(4,5-dimethylthiazol-2-yl)-2,5-diphenyltetrazolium bromide) assay. […] Absorbance at 570 nm was finally measured. […]

[3] = tested on: NCI-H929, lymphoblast (myeloma); assay: MTT viability assay, NCI-H929; type: cell-based; conditions: 24-72 h, Table 7, read-out: IC50 values in μM for S09
Experimental: NCI-H929, lymphoblast (myeloma), ATCC® CRL-9068™
as §1, §2
as §5, with “peptidomimetic compound (S09)” for “compounds”, “assay. Stock solution of MTT (475989 Calbiochem) was 5 mg/ml in PBS.” for “assay.”
as §4, with “follow: […]” for “follow:”

[4] = tested on: OPM-2, lymphoblast (myeloma); assay: MTT viability assay, OPM-2; type: cell-based; conditions: OPM2, 24-72 h, Table 7, read-out: IC50 values in μM for S09
Experimental: OPM-2, lymphoblast (myeloma), DSMZ No. ACC50
as §1, §2
as §5, with “peptidomimetic compound (S09)” for “compounds”, “assay. Stock solution of MTT (475989 Calbiochem) was 5 mg/ml in PBS.” for “assay.”
as §4, with “follow: […]” for “follow:”

[5] = tested on: MM144, lymphoblast (myeloma); assay: MTT viability assay, MM144; type: cell-based; conditions: 24-72 h, Table 7, read-out: IC50 values in μM for S09
Experimental: MM144, lymphoblast (myeloma), University of Salamanca
as §1, §2
as §5, with “peptidomimetic compound (S09)” for “compounds”, “assay. Stock solution of MTT (475989 Calbiochem) was 5 mg/ml in PBS.” for “assay.”
as §4, with “follow: […]” for “follow:”

[6] = tested on: U266, lymphoblast (myeloma); assay: MTT viability assay, U266; type: cell-based; conditions: 24-72 h, Table 7, read-out: IC50 values in μM for S09
Experimental: U266, lymphoblast (myeloma), ATCC® TIB196™
as §1, §2
as §5, with “peptidomimetic compound (S09)” for “compounds”, “assay. Stock solution of MTT (475989 Calbiochem) was 5 mg/ml in PBS.” for “assay.”
as §4, with “follow: […]” for “follow:”

SMILES	IC50 ([1]; 24 h) [µM]	IC50 ([1]; 72 h) [µM]	IC50 [2] [µM]	IC50 [3] [µM]	IC50 [4] [µM]	IC50 [5] [µM]	IC50 ([1]; read-out: IC50 values in μM for S09, MM1R (resistant to Dexamethasone), MTT, 24-72 h, Table 7) [µM]	IC50 [6] [µM]
CC[C@H](C)[C@H](NC(=O)[C@H](Cc1ccc(O)cc1)NC(=O)[C@H](C)NC(=O)C1CSCCCCCCCCSCC(NC(=O)[C@H](CCCCN)NC(=O)[C@@H]2CCCN2C(=O)[C@H](C)N)C(=O)N[C@@H](C(C)C)C(=O)N[C@@H]([C@@H](C)CC)C(=O)N[C@@H](CC(C)C)C(=O)N[C@@H](CCCCN)C(=O)N[C@@H](CCCCN)C(=O)N[C@@H](C)C(=O)N1)C(=O)N[C@@H](CC(C)C)C(=O)N[C@@H](CO)C(=O)O (stereo partly drawn) [IDP-P1708160] (H-APK[ξC]VILKKA[ξC]AYILS-OH; linker 4-11 via Octanediyl(1,8); N-terminus and C-terminus assumed)	15	10						
CC[C@H](C)[C@H](NC(=O)[C@H](Cc1ccc(O)cc1)NC(=O)[C@H](C)NC(=O)[C@@H]1CSCc2ccc(cc2)-c2ccc(cc2)CSC[C@H](NC(=O)[C@H](CCCCN)NC(=O)[C@@H]2CCCN2C(=O)[C@H](C)N)C(=O)N[C@@H](C(C)C)C(=O)N[C@@H]([C@@H](C)CC)C(=O)N[C@@H](CC(C)C)C(=O)N[C@@H](CCCCN)C(=O)N[C@@H](CCCCN)C(=O)N[C@@H](C)C(=O)N1)C(=O)N[C@@H](CC(C)C)C(=O)N[C@@H](CO)C(=O)O [IDP-P1708161] (H-APKCVILKKACAYILS-OH; linker 4-11 via Biphenyl(4,4'-CH2)2; N-terminus and C-terminus assumed)	12.5	15						
CC[C@H](C)[C@H](NC(=O)[C@H](Cc1ccc(O)cc1)NC(=O)[C@H](C)NC(=O)C1(C)CCCC=CCCCCCCC(C)(NC(=O)[C@H](CCCCN)NC(=O)[C@@H]2CCCN2C(=O)[C@H](C)N)C(=O)N[C@@H](C(C)C)C(=O)N[C@@H]([C@@H](C)CC)C(=O)N[C@@H](CC(C)C)C(=O)N[C@@H](CCCCN)C(=O)N[C@@H](CCCCN)C(=O)N[C@@H](C)C(=O)N1)C(=O)N[C@@H](CC(C)C)C(=O)N[C@@H](CO)C(=O)O (stereo partly drawn) [S09, APKXVILKKAXAYILS—OH] (H-APK[X1]VILKKA[ξαMeNle(6-ylidene)]AYILS-OH; staple 4-11; N-terminus assumed)			47 ± 0.2	3.6	4.8	6.8	8.3	7.5
CC[C@H](C)[C@H](NC(=O)[C@H](Cc1ccc(O)cc1)NC(=O)[C@H](C)NC(=O)C1(C)CCCC=CCCCCCCC(C)(NC(=O)[C@H](CCCCN)NC(=O)[C@@H]2CCCN2C(=O)[C@H](C)N)C(=O)N[C@@H](C(C)C)C(=O)N[C@@H]([C@@H](C)CC)C(=O)N[C@@H](Cc2ccccc2)C(=O)N[C@@H](CCCCN)C(=O)N[C@@H](CCCCN)C(=O)N[C@@H](C)C(=O)N1)C(=O)N[C@@H](CC(C)C)C(=O)N[C@@H](CO)C(=O)O (stereo partly drawn) [S14, APKXVIFKKAXAYILS—OH] (H-APK[X1]VIFKKA[ξαMeNle(6-ylidene)]AYILS-OH; staple 4-11; N-terminus assumed)	15	15						
